# Where two headings read alike, the source gives them in different places. Numbered stars: 1 amine (or outer) side, 2 acyl side, 3 side chain; on linkers, the order of the positions; unused ones are H or OH. Bridge positions count the residues as written; N and C are the ends. Square brackets hold non-standard residues; d marks the D form. Peptide text beside a SMILES is read from it. * marks the point of attachment. hTyr(3S-OH,4S-OH,3'-OSO3H) = N[C@H](C(=O)O)[C@H](O)[C@@H](O)c1ccc(O)c(OS(=O)(=O)O)c1; Orn(4R-OH,5R-OH) = O=C([C@H](C[C@@H](O)[C@@H](O)N[*:3])N[*:1])[*:2]; Pro(3S-OH,4S-Me) = C[C@H]1CN[C@H](C(=O)O)[C@H]1O; X1 = CCCCCOc1ccc(-c2cc(-c3ccc(C(=O)*)cc3)no2)cc1; Gln(3R-OH) = NC(=O)C[C@@H](O)[C@H](N)C(=O)O; Hyp = O=C(O)[C@@H]1C[C@@H](O)CN1
# System: C. albicans isolates
# Test: Broth microdilution susceptibility (CLSI M27-A3) at different medium pH
# Format: cell-based, Candida albicans
# Details: for MIC range: 50% inhibition, 10 vaginal isolates; for MIC50 / MIC90 / MIC: Candida albicans, 24 h
# Protocol: Ten strains each of C. glabrata and C. albicans vaginal isolates were tested. The strains were obtained from recent clinical trial patients with vulvovaginal candidiasis (VVC) prior to treatment. Candida strains were obtained from the Mycology Reference Library (MRL) at Case Western Reserve University School of Medicine, Ohio, United States.
# Susceptibility testing was performed using a broth microdilution method, according to CLSI M27-A3 guidelines (CLSI. 2008. Reference Method for Broth Dilution Antifungal Susceptibility Testing of Yeasts; Approved Standard—Third Edition. Clinical and Laboratory Standards Institute, CLSI document M27-A3). Antifungals and concentrations tested were SCY-078 and micafungin (both at concentrations within the range of 0.015 to 8 μg/ml) and fluconazole (at concentrations within the range of 0.125 to 64 μg/ml). A 0.1-ml C. albicans and C. glabrata inoculum of 0.5-2.5×10^3 blastospores/ml in RPMI 1640 medium was added to each microdilution well. ATCC strains of Candida parapsilosis and Candida krusei QC isolates were also included concurrently to ensure quality control. Antifungal susceptibility testing was carried out for each isolate in RPMI 1640 at pH 7 (to mimic RPMI medium used in testing the susceptibility of yeast by the CLSI M-27A3 document), pH 5.7, and pH 4.5 (to mimic the pH of the vaginal cavity) by adjusting the pH of the media using NaOH or HCl. […] Agents Chemother., 43: 1383-1386 (1999).
# […] SCY-078 powder was manufactured by Avista, Laboratories, NC. Micafungin and fluconazole were sourced from LGM Pharma.
smiles,measurement,setting,value
"CCCCCOc1ccc(-c2cc(-c3ccc(C(=O)N[C@H]4C[C@@H](O)[C@@H](O)NC(=O)[C@@H]5[C@@H](O)[C@@H](C)CN5C(=O)[C@H]([C@H](O)CC(N)=O)NC(=O)[C@H]([C@H](O)[C@@H](O)c5ccc(O)c(OS(=O)(=O)O)c5)NC(=O)[C@@H]5C[C@@H](O)CN5C(=O)[C@H]([C@@H](C)O)NC4=O)cc3)no2)cc1 [Micafungin, reference compound] (X1-[Orn(4R-OH,5R-OH)]T[Hyp][hTyr(3S-OH,4S-OH,3'-OSO3H)][Gln(3R-OH)][Pro(3S-OH,4S-Me)]; lactam 1-C)",MIC range,"pH 4.5, 24 h",0.25 to 0.5 µg/mL
same,MIC range,"pH 5.72, 24 h",0.063 to 1 µg/mL
same,MIC range,"pH 7.0, 24 h",0.25 µg/mL
same,MIC50,pH 4.5,0.5 µg/mL
same,MIC90,pH 4.5,0.5 µg/mL
same,MIC,"pH 4.5, read-out: MIC (50% inhibition), C. albicans MRL 34366, pH 4.5, 24 hours",0.5 µg/mL
same,MIC,"pH 4.5, read-out: MIC (50% inhibition), C. albicans MRL 34367, pH 4.5, 24 hours",0.5 µg/mL
same,MIC,"pH 4.5, read-out: MIC (50% inhibition), C. albicans MRL 34372, pH 4.5, 24 hours",0.5 µg/mL
same,MIC,"pH 4.5, read-out: MIC (50% inhibition), C. albicans MRL 34373, pH 4.5, 24 hours",0.5 µg/mL
same,MIC,"pH 4.5, read-out: MIC (50% inhibition), C. albicans MRL 34374, pH 4.5, 24 hours",0.5 µg/mL
same,MIC,"pH 4.5, read-out: MIC (50% inhibition), C. albicans MRL 34385, pH 4.5, 24 hours",0.5 µg/mL
same,MIC,"pH 4.5, read-out: MIC (50% inhibition), C. albicans MRL 34389, pH 4.5, 24 hours",0.5 µg/mL
same,MIC,"pH 4.5, read-out: MIC (50% inhibition), C. albicans MRL 34399, pH 4.5, 24 hours",0.5 µg/mL
same,MIC,"pH 4.5, read-out: MIC (50% inhibition), C. albicans MRL 34408, pH 4.5, 24 hours",0.25 µg/mL
same,MIC,"pH 4.5, read-out: MIC (50% inhibition), C. albicans MRL 34449, pH 4.5, 24 hours",0.5 µg/mL
same,MIC50,pH 5.72,1 µg/mL
same,MIC90,pH 5.72,1 µg/mL
same,MIC,"pH 5.72, read-out: MIC (50% inhibition), C. albicans MRL 34366, pH 5.72, 24 hours",0.5 µg/mL
same,MIC,"pH 5.72, read-out: MIC (50% inhibition), C. albicans MRL 34367, pH 5.72, 24 hours",0.5 µg/mL
same,MIC,"pH 5.72, read-out: MIC (50% inhibition), C. albicans MRL 34372, pH 5.72, 24 hours",1 µg/mL
same,MIC,"pH 5.72, read-out: MIC (50% inhibition), C. albicans MRL 34373, pH 5.72, 24 hours",1 µg/mL
same,MIC,"pH 5.72, read-out: MIC (50% inhibition), C. albicans MRL 34374, pH 5.72, 24 hours",1 µg/mL
same,MIC,"pH 5.72, read-out: MIC (50% inhibition), C. albicans MRL 34385, pH 5.72, 24 hours",1 µg/mL
same,MIC,"pH 5.72, read-out: MIC (50% inhibition), C. albicans MRL 34389, pH 5.72, 24 hours",1 µg/mL
same,MIC,"pH 5.72, read-out: MIC (50% inhibition), C. albicans MRL 34399, pH 5.72, 24 hours",1 µg/mL
same,MIC,"pH 5.72, read-out: MIC (50% inhibition), C. albicans MRL 34408, pH 5.72, 24 hours",0.063 µg/mL
same,MIC,"pH 5.72, read-out: MIC (50% inhibition), C. albicans MRL 34449, pH 5.72, 24 hours",0.25 µg/mL
same,MIC50,pH 7,0.25 µg/mL
same,MIC90,pH 7,0.25 µg/mL
same,MIC,"pH 7, read-out: MIC (50% inhibition), C. albicans MRL 34366, pH 7.0, 24 hours",0.25 µg/mL
same,MIC,"pH 7, read-out: MIC (50% inhibition), C. albicans MRL 34367, pH 7.0, 24 hours",0.25 µg/mL
same,MIC,"pH 7, read-out: MIC (50% inhibition), C. albicans MRL 34372, pH 7.0, 24 hours",0.25 µg/mL
same,MIC,"pH 7, read-out: MIC (50% inhibition), C. albicans MRL 34373, pH 7.0, 24 hours",0.25 µg/mL
same,MIC,"pH 7, read-out: MIC (50% inhibition), C. albicans MRL 34374, pH 7.0, 24 hours",0.25 µg/mL
same,MIC,"pH 7, read-out: MIC (50% inhibition), C. albicans MRL 34385, pH 7.0, 24 hours",0.25 µg/mL
same,MIC,"pH 7, read-out: MIC (50% inhibition), C. albicans MRL 34389, pH 7.0, 24 hours",0.25 µg/mL
same,MIC,"pH 7, read-out: MIC (50% inhibition), C. albicans MRL 34399, pH 7.0, 24 hours",0.25 µg/mL
same,MIC,"pH 7, read-out: MIC (50% inhibition), C. albicans MRL 34408, pH 7.0, 24 hours",0.25 µg/mL
same,MIC,"pH 7, read-out: MIC (50% inhibition), C. albicans MRL 34449, pH 7.0, 24 hours",0.25 µg/mL

# — patent publication US20260000656A1, “ANTIFUNGAL AGENTS WITH ENHANCED ACTIVITY IN ACIDIC PH” (Scynexis, Inc., priority 2017, published 2026)
